# From patent US10154970B2, “Methods for immunomodulation of cancer and infectious disease therapy” (The Regents of the University of California, priority 2014, dated 2018)
# Legend:
# [1] = system: cytotoxic T lymphocyte activity
# Protocol: (§1) FIG. 15. […] Antigen-specific IFN-γ immune response was assessed by ELISpot 48 hours following two cycles of peptide vaccine (PV).
# (§2) A total of 55 mixed-sex hMUC1.Tg C57BL/6 mice, starting at approximately five weeks of age, were treated with urethane as described above. Approximately six weeks after the last dose of urethane, mice were randomized into four treatment groups of approximately equal average weight: Control (n=22); TRIP (i.e., ospemifene) 50 mg/kg (n=16); tecemotide (L-BLP25) peptide vaccine (PV) (n=6); and TRIP+PV (n=11). At this time (Week 21), mice assigned to the […] began treatment with the first of two cycles consisting of eight weekly 10 μg doses each, with approximately four weeks between cycles. Cycle 1 was administered during Weeks 21-28, and Cycle 2 from Weeks 32-39. The PV was prepared and administered as described above. Mice in the TRIP groups began daily oral treatment in Week 31, which continued through the end of the study (approximately eight weeks of dosing). TRIP was prepared and administered as described above. Mice not assigned to TRIP treatment received daily oral doses of diluent. At the conclusion of the study, 48 h after the final dose of PV and 24 h after the last dose of TRIP, all mice were euthanized for the collection of serum and spleens, which were processed as described above for multiplex serum cytokine, Treg, and CTL analyses.
# IFN-γ = details: chronic daily TRIP 50 mg/kg + two cycles of PV
# Protocol: as §1, §2
# IL-2 = IL-2 mRNA expression in Jurkat cells by qRT-PCR, normalized with GAPDH; assay type: cell-based, human
# Protocol: FIG. 1. Interferon gamma (IFN-γ) and interleukin (IL)-2 expression in human Jurkat cells following exposure to TRIP in vitro. Jurkat cells (2×10^6) were treated with different concentrations of TRIP as indicated for 24 hours. (A) IFN-γ and (B) IL-2 mRNA expression levels were detected by quantitative real-time polymerase chain reaction (qRT-PCR) and normalized with the expression of GAPDH. *p<0.05, **p<0.01, ***p<0.001.
# FIG. 3. Effects of TRIP alone and in combination with trifluoperazine (TFP) or LY294002 (LY) on IFN-γ and IL-2 in human Jurkat cells in vitro. Jurkat cells (2×10^6) were pretreated with different concentrations of (A, B) TFP (0, 0.1, 1.0, 5.0, and 10.0 μM) and (C, D) LY294002 (0, 1, 5, 10, and 25 μM) for 1 hour, then incubated with medium containing 2.5 μM of TRIP for 24 hours. (A, C) IFN-γ and (B, D) IL-2 mRNA expression levels were detected by qRT-PCR and normalized with the expression of GAPDH. *p<0.05, **p<0.01, ***p<0.001.
# FIG. 4. Effects of calmodulin, PI3K and MAPK inhibition on TRIP-induced expression of IFN-γ and IL-2 in human Jurkat cells in vitro. Jurkat cells (2×10^6) were pretreated with PD98059 (50 μM), TFP (10 μM) and LY294002 (25 μM) for 1 hour, then incubated with medium containing 2.5 μM of TRIP for 24 hours. (A) IFN-γ and (B) IL-2 mRNA expression levels were detected by qRT-PCR and normalized with the expression of GAPDH. **p<0.01, ***p<0.001, ****p<0.0001.
# The potential immune regulating effects of TRIP and the possible mechanism(s) involved were determined with in vitro experiments examining the expression of T cell activating cytokines in human acute T cell leukemia Jurkat cells. The expression of IFN-γ and IL-2 RNA following exposure to increasing concentrations of TRIP (i.e., ospemifene) were first examined, followed by the effects of combining tamoxifen with TRIP on the expression of these cytokines. Different inhibitors of key T cell activation pathways—trifluoperazine (TFP), an inhibitor of calmodulin, LY294002, an inhibitor of PI3K, and PD98059, a MAPK inhibitor—in combination with TRIP were assessed for their effects on TRIP-induced expression of IFN-γ and IL-2 in Jurkat cells.
# Jurkat cells (2.0×10^6) were treated with different concentrations of TRIP as indicated on the x-axis for 24 hours. (A) IFN-γ and (B) IL-2 mRNA expression levels were detected by quantitative real-time polymerase chain reaction (qRT-PCR) and normalized with the expression of GAPDH. *p<0.05, **p<0.01, ***p<0.001.
# T cell activation requires multiple signals including PI3K, MAPK and calcium signaling pathways, and in order to identify the potential mechanism through which TRIP affects immune activation, Jurkat cells (2.0×10^6) were pretreated with different concentrations of TFP (0, 0.1, 1.0, 5.0 and 10.0 μM) (A, B) or LY294002 (0, 1, 5, 10 and 25 μM) (C, D) for one hour, then incubated with medium containing 2.5 μM TRIP for 24 hours. IFN-γ and IL-2 expression levels were detected by qRT-PCR and normalized with the expression of GAPDH. *p<0.05, **p<0.01, ***p<0.001.
# Jurkat cells (2×10^6) were pretreated with PD98059 (50 μM), TFP (10 μM) or LY294002 (25 μM) for one hour, then incubated with medium containing 2.5 μM TRIP for 24 hours. (A) IFN-γ and (B) IL-2 mRNA expression levels were detected by qRT-PCR and normalized with expression of GAPDH. **p<0.01, ***p<0.001, ****p<0.0001.
# The effects on T cell activation of different functional group substitutions on the TRIP chemical structure (Formula Ia) were examined by measuring the expression of IFN-γ and IL-2 RNA in human acute T cell leukemia Jurkat cells in vitro.
# A strong increase is defined as a ≥50% increase compared to the control. A moderate increase is defined as a 25-49% increase compared to the control. A weak increase is defined as a 0-24% increase compared to the control. No effect is when there was no increase compared to the control.
# [2] = chronic daily TRIP 50 mg/kg + PV
structure (smiles),measurement,setting,value
"OCCOc1ccc(/C(=C(/CCCl)c2ccccc2)c2ccccc2)cc1 [TRIP, Z-2-[4-(4-chloro-1,2-diphenyl-but-1-enyl)-phenoxy]ethanol]",CTL activity of the combination over that of PV alone,[1]; [2],increased CTL activity
same,additive CTL activity in combination with PV,[1]; [2],no additive CTL activity
same,CTL activity compared to control,[1]; chronic daily TRIP 50 mg/kg alone,"slightly, but not significantly increased"
same,"PV-induced, antigen-specific immune response (IFN-γ ELISpot)",IFN-γ,significantly decreased
same,IL-2 RNA expression compared to control,"IL-2; Jurkat cells, different concentrations of TRIP, 24 hours, dose-dependent (FIG. 1B)",significantly induced
same,IL-2 Expression,"IL-2; mRNA in Jurkat cells in vitro, relative to control sample without TRIP compound",+++ (strong increase)
